Here are results for two substances from patent publication US4622386A, “[1,7-di-alanine]calcitonin” (Armour Pharmaceutical Company, priority 1985, dated 1986).

The subject of test [1] is serum calcium concentration. In words: Biological assay of calcitonin analogs in vivo: reduction of serum calcium concentration, 2×2 parallel line assay. Conditions: rats, subcutaneous injection, blood withdrawn 1 hour later. On the procedure: Biological Assay Of Calcitonin Analogs In Vivo
The biological potency of [Di-Ala^1,7 ]salmon calcitonin was determined by comparing the reduction of serum calcium concentration which followed administration by graded doses of [Di-Ala^1,7 ]SCT and synthetic salmon calcitonin standard. Rats were divided into four groups of seven animals, and each group was assigned at random to a dose of standard or test solution. Low and high doses were chosen from the linear portion of the dose-responsive curve. For the salmon calcitonin standard, the values were 0.7 and 2.1 mcg. peptide/100 g. body weight (BW). This dose approximates 3 and 9 MU/100 g. BW. Peptides were given by subcutaneous injection (0.2 ml/100 g. BW) and blood was withdrawn 1 hour later for serum calcium determination. Sera are processed and analyzed within two hours of collection. […]. Results were analyzed by a 2×2 parallel line assay [Gaddum, J. H., J. Pharm. Pharmacol., 6, 345 (1953)]. The standard salmon calcitonin used was independently determined to contain greater than 4,000 IU/mg. [Di-Ala^1,7 ]SCT assayed at 5550 IU/mg.

For test [2], the system named is serum calcium concentration. The note with it: standard used in the rat serum calcium assay; cited from earlier work.

As to “[1,7-Di-Alanine)]salmon calcitonin [[Di-Ala^1,7]SCT]”, the “biological potency (reduction of serum calcium concentration vs synthetic salmon calcitonin standard)” value in test [1] is 5550 IU/mg.
Consider “Salmon calcitonin [standard salmon calcitonin]”, for which the “potency of the standard salmon calcitonin, independently determined” value in test [2] is “greater than 4,000 IU/mg”.
